From patent publication US10874683B2, “N4-hydroxycytidine and derivatives and anti-viral uses related thereto” (Emory University, priority 2016, dated 2020)
Read-outs that look alike come from different tables or passages of the source.

Columns and labels:
[1] = Rodent pharmacokinetic experiment in DBA-1J mice; assay type: in vivo; conditions: for concentration at 24 h: oral, read-out: 24 hr plasma levels
Experimental: DBA-1J mice (6-8 weeks old, female) were acclimated for ≥2 days after receipt. Mice were weighed the day before dosing to calculate dosing volumes. Mice were dosed by oral gavage with drug at 30 mg/kg, 100 mg/kg & 300 mg/kg. The mice were sampled at […] time points: 0.5, 1, 2, 3, 4, 8 and 24 hrs (3 mice per time point for test drug). The mice were euthanized and their organs were collected (see below). In order to collected blood, mice with euthanized by CO2 at the appropriate time point listed above. Blood was obtained by cardiac puncture (0.3 ml) at each time point. Following blood collection, the organs were removed from the mice (see below). The blood was processed by inverting Li-Heparin tube with blood gently 2 or 3 times to mix well. The tubes were then placed in a rack in ice water until able to centrifuge (≤1 hour). As soon as practical, the blood was centrifuged at ˜2000×g for 10 min in a refrigerated centrifuge to obtain plasma. Then, using a 200 μL pipette, the plasma was transferred to a labeled 1.5 ml Eppendorf tube in ice water. The plasma was then frozen in freezer or on dry ice. The samples were stored at −80° C. prior to analysis. Organs were collected from euthanized mice. The organs (lungs, liver, kidney, spleen and heart) were removed, placed in a tube, and immediately frozen in liquid nitrogen. The tubes were then transferred to dry ice. The samples were saved in cryogenic tissue vials. Samples were analyzed by LC-MS/MS using an ABSCIEX 5500 QTRAP LC-MS/MS system with a Hypercarb (PGC) column.

[2] = tested on: Ross River virus; experiment: Vero cell cytopathic effect (CPE) model, Ross River virus; assay type: cell-based
[3] = tested on: EEE virus; experiment: organism not typed; assay type: cell-based; conditions: Vero
[4] = tested on: WEE virus; experiment: organism not typed; assay type: cell-based; conditions: Vero
[5] = tested on: VEE virus; experiment: organism not typed; assay type: cell-based; conditions: Vero
[6] = tested on: CHIK virus; experiment: organism not typed; assay type: cell-based; conditions: Vero
[7] = tested on: CEM cells; experiment: Cytotoxicity profile, CEM cells; assay type: cell-based; conditions: CEM cells (low of range)
[8] = tested on: Huh7 (liver) cells; experiment: Cytotoxicity profile, Huh7 (liver) cells; assay type: cell-based; conditions: Huh7 (liver) cells (high of range)
[9] = Toxicology after 6 day q.d. intraperitoneal injections in mice; assay type: in vivo
Excerpt: Alternatively, drug delivery by aerosol (nasal spray) administration may immediately achieve therapeutic levels of drug in the nasal mucosa and the brain.

[10] = rat, in vivo, po, 50 mg/kg
[11] = Rodent pharmacokinetic experiment in DBA-1J mice; assay type: in vivo; conditions: female, mouse, plasma, after IV dosing, read-out: plasma T1/2 (converted)
[12] = tested on: pestivirus, hepacivirus; conditions: Stuyver et al., Antimicrob Agents Chemother 2003; cited from earlier work
[13] = in vivo; conditions: male, SD, rat, po, 50 mg/kg
[14] = tested on: ZIKV; experiment: ZIKV antiviral assay; assay type: cell-based; conditions: Zika virus, read-out: ZIKV (EC50 μM)
[15] = Cytotoxicity in Vero cells (ZIKV table); conditions: African green monkey

Q: Which results are given for `O=c1nc(NO)ccn1[C@@H]1O[C@H](CO)[C@H](O)C1O` (stereo in doubt) [EIDD-01931, 1-(3,4-dihydroxy-5-(hydroxymethyl)tetrahydrofuran-2-yl)-4-(hydroxyamino)pyrimidin-2-one]?
A: Bioavailability (versus I.P. delivery) ([1]; 30 mg/kg PO dosing): 65%; Bioavailability (versus I.P. delivery) ([1]; 100 and 300 mg/kg PO dosing): 39-46%; Cmax ([1]; female, DBA-1J, mouse, plasma, PO dosing 30 mg/kg): 3 ng/mL; Cmax ([1]; female, DBA-1J, mouse, plasma, PO dosing 100 mg/kg): 7.7 ng/mL; Cmax ([1]; female, DBA-1J, mouse, plasma, PO dosing 300 mg/kg): 11.7 ng/mL; half-life ([1]; female, DBA-1J, mouse, plasma, after PO dosing, read-out: plasma T1/2): 4.1 to 4.7 h; Tmax ([1]; female, DBA-1J, mouse, plasma, after oral dosing): 0.25 to 0.5 h; concentration at 24 h ([1]; female, DBA-1J, mouse, plasma, after 100 mg/kg dose): ~100 nM; concentration at 24 h ([1]; female, DBA-1J, mouse, plasma, after 300 mg/kg P.O. dose): ~400 nM; EC50 [2]: 2.45 µM; EC50 [3]: 1.08 µM; EC50 [4]: 1.36 µM; EC50 [5]: 1 µM; EC50 [6]: 1.28 µM; selectivity index [7]: 8; selectivity index [8]: 232; body weight effect at highest dose tested ([9]; 100 mg/kg, 6 day q.d. IP, reversed on cessation of dosing): weight loss was observed; NOEL (NO Effect Level) ([9]; 6 day q.d. intraperitoneal (IP) injections): 33 mg/kg; tissue distribution [10]: well distributed into all tissues tested; half-life [11]: 2.2 h; antiviral activity [12]: antipestivirus and antihepacivirus activities; bioavailability [13]: 28%

Q: Which results are given for `O=c1nc(NO)ccn1[C@@H]1O[C@H](CO)[C@H](O)C1O` (stereo partly drawn) [drawing 106]?
A: EC50 [14]: 4.02 µM; CC50 [15]: 50.4 µM
